{
  "source": "paper PMC9527238",
  "about": "“Glutamate and GABAA receptor crosstalk mediates homeostatic regulation of neuronal excitation in the mammalian brain” (Signal Transduction and Targeted Therapy, 2022)",
  "assay_in_all_cases": "Patch clamp, HEK293, mutant GABAAR",
  "assay_type_in_all_cases": "cell-based",
  "conditions_in_all_cases": "HEK293, read-out: Glutamate potentiation of GABA currents, % of control, normalized to wild-type α1β2γ2",
  "key": {"[1]": {"biological_target": "T1, αβE181Wγ GABAAR (Rattus norvegicus, UniProt P62813+P63138, E206W)", "T1 construct": "expressed in transfected cells; host or cells: HEK293", "T1 sequence (P62813 28-455)": "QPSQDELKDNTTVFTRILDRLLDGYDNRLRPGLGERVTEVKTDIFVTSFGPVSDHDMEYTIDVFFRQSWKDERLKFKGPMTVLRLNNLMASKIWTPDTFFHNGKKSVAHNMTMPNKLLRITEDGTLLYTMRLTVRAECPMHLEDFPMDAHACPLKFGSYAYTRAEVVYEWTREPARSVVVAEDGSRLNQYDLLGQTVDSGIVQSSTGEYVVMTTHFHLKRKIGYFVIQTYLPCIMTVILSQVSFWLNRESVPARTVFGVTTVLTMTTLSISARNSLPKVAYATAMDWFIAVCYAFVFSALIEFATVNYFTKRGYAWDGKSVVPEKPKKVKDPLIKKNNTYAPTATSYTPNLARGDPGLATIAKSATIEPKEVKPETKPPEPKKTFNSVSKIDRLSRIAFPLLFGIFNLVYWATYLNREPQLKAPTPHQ", "T1 sequence (P63138 26-474 E206W)": "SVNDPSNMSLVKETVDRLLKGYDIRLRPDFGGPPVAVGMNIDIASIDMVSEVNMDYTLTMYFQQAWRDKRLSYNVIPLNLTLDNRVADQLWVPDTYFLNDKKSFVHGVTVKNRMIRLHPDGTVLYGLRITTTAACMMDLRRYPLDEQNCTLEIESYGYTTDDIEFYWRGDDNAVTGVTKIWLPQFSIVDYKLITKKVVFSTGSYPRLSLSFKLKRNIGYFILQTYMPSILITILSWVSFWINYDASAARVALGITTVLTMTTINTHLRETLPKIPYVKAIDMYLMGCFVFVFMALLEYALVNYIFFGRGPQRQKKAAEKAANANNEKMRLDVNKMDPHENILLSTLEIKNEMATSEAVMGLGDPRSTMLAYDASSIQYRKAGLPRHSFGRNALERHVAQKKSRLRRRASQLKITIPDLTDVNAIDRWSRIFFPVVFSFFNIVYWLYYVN", "T1 sequence (P18508 39-466 partner)": "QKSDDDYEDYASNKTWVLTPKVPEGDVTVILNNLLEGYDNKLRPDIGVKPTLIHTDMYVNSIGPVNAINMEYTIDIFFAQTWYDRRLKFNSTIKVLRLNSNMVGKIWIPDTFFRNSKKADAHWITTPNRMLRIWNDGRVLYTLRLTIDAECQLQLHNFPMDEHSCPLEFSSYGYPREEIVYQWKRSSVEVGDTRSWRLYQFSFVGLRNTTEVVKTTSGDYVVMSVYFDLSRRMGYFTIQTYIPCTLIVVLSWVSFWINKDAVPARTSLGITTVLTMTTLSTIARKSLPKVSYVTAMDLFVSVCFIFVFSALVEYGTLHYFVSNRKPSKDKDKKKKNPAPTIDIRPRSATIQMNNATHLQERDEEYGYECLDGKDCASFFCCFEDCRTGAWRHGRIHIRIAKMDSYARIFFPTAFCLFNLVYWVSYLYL", "source_text": "(§1) To further determine the relative significance between the electrostatic and the side chain steric arrangements of these critical amino acid residues in their interaction with glutamate, we next studied the effects of substitution of these amino acids with amino acids of various sizes or charges on the glutamate potentiation. We substituted α1K104, α1E137, α1K155, or β2E181 with […], a non-charged amino acid, in order to perturb the electrostatic accessibility of glutamate to the binding pocket.\n(§2) Fig. 4 Property characterization of glutamate binding sites in HEK cells expressing wild-type or mutated αβγ GABAARs. a, b The effects of electrostatic charge and/or size of the pocket-forming residues on glutamate-induced functional modulation.\n(§3) HEK293 cells were cultured in DMEM (Invitrogen) supplemented with 10% fetal bovine serum. Cells were grown to 40–60% confluence and transiently transfected using Lipofectamine 2000 (Invitrogen) with 1:0.5–1 plasmid/lipid ratio. Cells were transfected with a pBK-CMV expression vector containing a rat recombinant GABAAR α, β or γ subunits. Co-transections were done with a plasmid ratio of 1:1 αβ and 2:2:1 for αβγ subunit combinations, respectively. pcDNA3.1-GFP was also co-transfected along with GABAAR subunits as a transfected marker in order to facilitate the visualization of the transfected cells during electrophysiological experiments. Cells were re-plated on glass coverslips after 15–20 h transfection and were cultured for an additional 15–24 h before whole-cell patch-clamp recordings.\n(§4) The site-directed mutagenesis of α, β or γ subunits were performed by using the QuikChange method (Stratagene). […] Wild-type or mutant subunits were transfected in HEK293 cells and subjected to electrophysiology examinations.\n(§5) Whole-cell patch-clamp recordings were performed under voltage-clamp mode using an Axopatch 200B or 1D patch-clamp amplifier (Molecular Devices) on HEK293 cells and cultured neurons. Whole-cell currents were recorded at a holding potential of −60 mV, and signals were filtered at 2 kHz, digitized at 10 kHz (Digidata 1322 A). Recording pipettes (3–5 MΩ) were filled with the intracellular solution that contained (mM): CsCl 140, HEPES 10, Mg-ATP 4, QX-314 5, pH 7.20; osmolarity, 290–295 mOsm. BAPTA (10 mM) was added in the intracellular solution. The coverslips were continuously superfused with the extracellular solution containing (mM): NaCl 140, KCl 5.4, HEPES 10, MgCl2 1.0, CaCl2 1.3, glucose 20, pH 7.4; osmolarity, 305–315 mOsm. […] Dose–response curves were created by fitting data to Hill equation: I = Imax/[1 + (EC50/[A])^n], where I is the current, Imax is the maximum current, [A] is a given concentration of agonist, n is the Hill coefficient. […] All experiments were performed at room temperature."}, "[2]": {"biological_target": "T2, αE137Wβγ GABAAR (Rattus norvegicus, UniProt P62813+P63138, E164W)", "T2 construct": "expressed in transfected cells; host or cells: HEK293", "T2 sequence (P62813 28-455 E164W)": "as the sequence (P62813 28-455) above, with E137W counted along it", "T2 sequence (P63138 26-474)": "as the sequence (P63138 26-474 E206W) above, with W181E counted along it", "T2 sequence (P18508 39-466 partner)": "as the sequence (P18508 39-466 partner) above", "source_text": "as §1, §2, §3, §4, §5"}, "[3]": {"biological_target": "T3, αK155Wβγ GABAAR (Rattus norvegicus, UniProt P62813+P63138, K182W)", "T3 construct": "expressed in transfected cells; host or cells: HEK293", "T3 sequence (P62813 28-455 K182W)": "as the sequence (P62813 28-455) above, with K155W counted along it", "T3 sequence (P63138 26-474)": "as the sequence (P63138 26-474 E206W) above, with W181E counted along it", "T3 sequence (P18508 39-466 partner)": "as the sequence (P18508 39-466 partner) above", "source_text": "as §1, §2, §3, §4, §5"}, "[4]": {"biological_target": "T4, αK155Rβγ GABAAR (Rattus norvegicus, UniProt P62813+P63138, K182R)", "T4 construct": "expressed in transfected cells; host or cells: HEK293", "T4 sequence (P62813 28-455 K182R)": "as the sequence (P62813 28-455) above, with K155R counted along it", "T4 sequence (P63138 26-474)": "as the sequence (P63138 26-474 E206W) above, with W181E counted along it", "T4 sequence (P18508 39-466 partner)": "as the sequence (P18508 39-466 partner) above", "source_text": "as §1, §2, §3, §4, §5"}},
  "data": [
    {"smiles": "N[C@@H](CCC(=O)O)C(=O)O", "note": "[glutamate, Glutamate]", "values": [
      {"measurement": "activity at 100 µM", "setting": "[1]; Glu 100 μM", "result": "5.4 ± 4.9", "unit": "%"},
      {"measurement": "activity at 1000 µM", "setting": "[1]; Glu 1 mM", "result": "7.6 ± 4.3", "unit": "%"},
      {"measurement": "activity at 100 µM", "setting": "[2]; Glu 100 μM", "result": "14.7 ± 6.3", "unit": "%"},
      {"measurement": "activity at 1000 µM", "setting": "[2]; Glu 1 mM", "result": "21.1 ± 4.4", "unit": "%"},
      {"measurement": "activity at 100 µM", "setting": "[3]; Glu 100 μM", "result": "4 ± 4.7", "unit": "%"},
      {"measurement": "activity at 1000 µM", "setting": "[3]; Glu 1 mM", "result": "29.9 ± 8.8", "unit": "%"},
      {"measurement": "activity at 100 µM", "setting": "[4]; Glu 100 μM", "result": "88.4 ± 22.5", "unit": "%"},
      {"measurement": "activity at 1000 µM", "setting": "[4]; Glu 1 mM", "result": "106 ± 20.4", "unit": "%"}
    ]}
  ]
}
